Values after ≈ are worked out from the molar mass of the structure shown.
How the values were obtained:
Format in all cases: functional
Salmonella typhi [1] = assay: Antibacterial activity against Salmonella enterica subsp. enterica serovar Typhi MTCC 733 assessed as growth inhibition at 3.12 to 50 ug/mL after 24 hr by agar disk diffusion method
[2] = system: Mycobacterium tuberculosis; assay: Antimycobacterial activity against Mycobacterium tuberculosis H37Rv assessed as growth inhibition at MIC after 12 to 28 days by Lowenstein and Jensen agar dilution method
[3] = system: Mycobacterium tuberculosis; assay: Antimycobacterial activity against Mycobacterium tuberculosis H37Rv assessed as growth inhibition measured within 10 days by BACTEC MGIT method; settings: 240 h
Proteus vulgaris [4] = assay: Antibacterial activity against Proteus vulgaris MTCC 1771 assessed as growth inhibition at 3.12 to 50 ug/mL after 24 hr by agar disk diffusion method
Aspergillus clavatus [5] = assay: Antifungal activity against Aspergillus clavatus MTCC 1323 assessed as growth inhibition at 3.12 to 50 ug/mL after 24 hr by agar disk diffusion method
Shigella flexneri [6] = assay: Antibacterial activity against Shigella flexneri MTCC 1457 assessed as growth inhibition at 3.12 to 50 ug/mL after 24 hr by agar disk diffusion method
Bacillus cereus [7] = assay: Antibacterial activity against Bacillus cereus MTCC 430 assessed as growth inhibition after 24 hr by agar streak dilution method; settings: MTCC 430, 24 h
Escherichia coli [8] = assay: Antibacterial activity against Escherichia coli MTCC 739 assessed as growth inhibition after 24 hr by agar streak dilution method; settings: MTCC 739, 24 h
Aspergillus fumigatus [9] = assay: Antifungal activity against Aspergillus fumigatus MTCC 343 assessed as growth inhibition after 48 hr by agar streak dilution method; settings: MTCC 343, 48 h
Aspergillus niger [10] = assay: Antifungal activity against Aspergillus niger MTCC 282 assessed as growth inhibition at 3.12 to 50 ug/mL after 24 hr by agar disk diffusion method
Salmonella typhi [11] = assay: Antibacterial activity against Salmonella enterica subsp. enterica serovar Typhi MTCC 733 assessed as growth inhibition after 24 hr by agar streak dilution method; settings: MTCC 733, 24 h
Pseudomonas aeruginosa [12] = assay: Antibacterial activity against Pseudomonas aeruginosa MTCC 741 assessed as growth inhibition after 24 hr by agar streak dilution method; settings: MTCC 741, 24 h
Aspergillus niger [13] = assay: Antifungal activity against Aspergillus niger MTCC 282 assessed as growth inhibition after 48 hr by agar streak dilution method; settings: MTCC 282, 48 h
Staphylococcus aureus [14] = assay: Antibacterial activity against Staphylococcus aureus MTCC 96 assessed as growth inhibition at 3.12 to 50 ug/mL after 24 hr by agar disk diffusion method
[15] = system: Mycobacterium tuberculosis; assay: Antimycobacterial activity against Mycobacterium tuberculosis H37Rv assessed as growth inhibition after 12 to 28 days by Lowenstein and Jensen agar dilution method
Klebsiella pneumoniae [16] = assay: Antibacterial activity against Klebsiella pneumoniae MTCC 109 assessed as growth inhibition at 3.12 to 50 ug/mL after 24 hr by agar disk diffusion method
Escherichia coli [17] = assay: Antibacterial activity against Escherichia coli MTCC 739 assessed as growth inhibition at 3.12 to 50 ug/mL after 24 hr by agar disk diffusion method
Proteus vulgaris [18] = assay: Antibacterial activity against Proteus vulgaris MTCC 1771 assessed as growth inhibition after 24 hr by agar streak dilution method; settings: MTCC 1771, 24 h
Shigella flexneri [19] = assay: Antibacterial activity against Shigella flexneri MTCC 1457 assessed as growth inhibition after 24 hr by agar streak dilution method; settings: MTCC 1457, 24 h
Staphylococcus aureus [20] = assay: Antibacterial activity against Staphylococcus aureus MTCC 96 assessed as growth inhibition after 24 hr by agar streak dilution method; settings: MTCC 96, 24 h
Candida albicans [21] = assay: Antifungal activity against Candida albicans MTCC 183 assessed as growth inhibition at 3.12 to 50 ug/mL after 24 hr by agar disk diffusion method
Pseudomonas aeruginosa [22] = assay: Antibacterial activity against Pseudomonas aeruginosa MTCC 741 assessed as growth inhibition at 3.12 to 50 ug/mL after 24 hr by agar disk diffusion method
Candida albicans [23] = assay: Antifungal activity against Candida albicans MTCC 183 assessed as growth inhibition after 48 hr by agar streak dilution method; settings: MTCC 183, 48 h
Aspergillus clavatus [24] = assay: Antifungal activity against Aspergillus clavatus MTCC 1323 assessed as growth inhibition after 48 hr by agar streak dilution method; settings: MTCC 1323, 48 h
Klebsiella pneumoniae [25] = assay: Antibacterial activity against Klebsiella pneumoniae MTCC 109 assessed as growth inhibition after 24 hr by agar streak dilution method; settings: MTCC 109, 24 h
Bacillus cereus [26] = assay: Antibacterial activity against Bacillus cereus MTCC 430 assessed as growth inhibition at 3.12 to 50 ug/mL after 24 hr by agar disk diffusion method
Aspergillus fumigatus [27] = assay: Antifungal activity against Aspergillus fumigatus MTCC 343 assessed as growth inhibition at 3.12 to 50 ug/mL after 24 hr by agar disk diffusion method

SMILES: CC(=O)Nc1ccc2nc(NC(=O)CNc3ccc(-c4nc(N5CC(C)CC(C)C5)nc(N5CC(C)CC(C)C5)n4)cc3)sc2c1 (stereo not drawn)
- inhibition zone (IZ) (Salmonella typhi [1]): 17 mm
- growth inhibition (GI) [2]: 98%
- MIC [3]: > 6.25 µg/mL
- inhibition zone (IZ) (Proteus vulgaris [4]): 26 mm
- inhibition zone (IZ) (Aspergillus clavatus [5]): 24 mm
- inhibition zone (IZ) (Shigella flexneri [6]): 13 mm
- MIC (Bacillus cereus [7]): 50 µg/mL (≈ 77.9 µM)
- MIC (Escherichia coli [8]): 50 µg/mL (≈ 77.9 µM)
- MIC (Aspergillus fumigatus [9]): > 50 µg/mL
- inhibition zone (IZ) (Aspergillus niger [10]): 24 mm
- MIC (Salmonella typhi [11]): 50 µg/mL (≈ 77.9 µM)
- MIC (Pseudomonas aeruginosa [12]): 50 µg/mL (≈ 77.9 µM)
- MIC (Aspergillus niger [13]): 6.25 µg/mL (≈ 9.74 µM)
- inhibition zone (IZ) (Staphylococcus aureus [14]): 19 mm
- MIC [15]: 50 µg/mL (≈ 77.9 µM)
- inhibition zone (IZ) (Klebsiella pneumoniae [16]): 21 mm
- inhibition zone (IZ) (Escherichia coli [17]): 19 mm
- MIC (Proteus vulgaris [18]): 6.25 µg/mL (≈ 9.74 µM)
- MIC (Shigella flexneri [19]): 50 µg/mL (≈ 77.9 µM)
- MIC (Staphylococcus aureus [20]): 50 µg/mL (≈ 77.9 µM)
- inhibition zone (IZ) (Candida albicans [21]): 22 mm
- inhibition zone (IZ) (Pseudomonas aeruginosa [22]): 19 mm
- MIC (Candida albicans [23]): 25 µg/mL (≈ 39 µM)
- MIC (Aspergillus clavatus [24]): 50 µg/mL (≈ 77.9 µM)
- MIC (Klebsiella pneumoniae [25]): 50 µg/mL (≈ 77.9 µM)
- inhibition zone (IZ) (Bacillus cereus [26]): 17 mm
- inhibition zone (IZ) (Aspergillus fumigatus [27]): <10 mm

SMILES: CC1CC(C)CN(c2nc(-c3ccc(NCC(=O)Nc4nc5ccc(Cl)cc5s4)cc3)nc(N3CC(C)CC(C)C3)n2)C1 (stereo not drawn)
- inhibition zone (IZ) (Salmonella typhi [1]): 22 mm
- growth inhibition (GI) [2]: 97%
- MIC [3]: > 6.25 µg/mL
- inhibition zone (IZ) (Proteus vulgaris [4]): 20 mm
- inhibition zone (IZ) (Aspergillus clavatus [5]): <10 mm
- inhibition zone (IZ) (Shigella flexneri [6]): 26 mm
- MIC (Bacillus cereus [7]): 6.25 µg/mL (≈ 10.1 µM)
- MIC (Escherichia coli [8]): 25 µg/mL (≈ 40.4 µM)
- MIC (Aspergillus fumigatus [9]): > 50 µg/mL
- inhibition zone (IZ) (Aspergillus niger [10]): 17 mm
- MIC (Salmonella typhi [11]): 25 µg/mL (≈ 40.4 µM)
- MIC (Pseudomonas aeruginosa [12]): 25 µg/mL (≈ 40.4 µM)
- MIC (Aspergillus niger [13]): 50 µg/mL (≈ 80.7 µM)
- inhibition zone (IZ) (Staphylococcus aureus [14]): 22 mm
- MIC [15]: 62.5 µg/mL (≈ 101 µM)
- inhibition zone (IZ) (Klebsiella pneumoniae [16]): 23 mm
- inhibition zone (IZ) (Escherichia coli [17]): 21 mm
- MIC (Proteus vulgaris [18]): 50 µg/mL (≈ 80.7 µM)
- MIC (Shigella flexneri [19]): 6.25 µg/mL (≈ 10.1 µM)
- MIC (Staphylococcus aureus [20]): 6.25 µg/mL (≈ 10.1 µM)
- inhibition zone (IZ) (Candida albicans [21]): 12 mm
- inhibition zone (IZ) (Pseudomonas aeruginosa [22]): 26 mm
- MIC (Candida albicans [23]): 50 µg/mL (≈ 80.7 µM)
- MIC (Aspergillus clavatus [24]): > 50 µg/mL
- MIC (Klebsiella pneumoniae [25]): 50 µg/mL (≈ 80.7 µM)
- inhibition zone (IZ) (Bacillus cereus [26]): 27 mm
- inhibition zone (IZ) (Aspergillus fumigatus [27]): <10 mm

SMILES: CC1CC(C)CN(c2nc(-c3ccc(NCC(=O)Nc4nc5ccc(Br)cc5s4)cc3)nc(N3CC(C)CC(C)C3)n2)C1 (stereo not drawn)
- inhibition zone (IZ) (Salmonella typhi [1]): 24 mm
- growth inhibition (GI) [2]: 99%
- MIC [3]: > 6.25 µg/mL
- inhibition zone (IZ) (Proteus vulgaris [4]): 23 mm
- inhibition zone (IZ) (Aspergillus clavatus [5]): 26 mm
- inhibition zone (IZ) (Shigella flexneri [6]): 25 mm
- MIC (Bacillus cereus [7]): 6.25 µg/mL (≈ 9.42 µM)
- MIC (Escherichia coli [8]): 12.5 µg/mL (≈ 18.8 µM)
- MIC (Aspergillus fumigatus [9]): 50 µg/mL (≈ 75.3 µM)
- inhibition zone (IZ) (Aspergillus niger [10]): 19 mm
- MIC (Salmonella typhi [11]): 6.25 µg/mL (≈ 9.42 µM)
- MIC (Pseudomonas aeruginosa [12]): 25 µg/mL (≈ 37.7 µM)
- MIC (Aspergillus niger [13]): 50 µg/mL (≈ 75.3 µM)
- inhibition zone (IZ) (Staphylococcus aureus [14]): 25 mm
- MIC [15]: 12.5 µg/mL (≈ 18.8 µM)
- inhibition zone (IZ) (Klebsiella pneumoniae [16]): 11 mm
- inhibition zone (IZ) (Escherichia coli [17]): 23 mm
- MIC (Proteus vulgaris [18]): 25 µg/mL (≈ 37.7 µM)
- MIC (Shigella flexneri [19]): 12.5 µg/mL (≈ 18.8 µM)
- MIC (Staphylococcus aureus [20]): 1.56 µg/mL (≈ 2.35 µM)
- inhibition zone (IZ) (Candida albicans [21]): 18 mm
- inhibition zone (IZ) (Pseudomonas aeruginosa [22]): 25 mm
- MIC (Candida albicans [23]): 50 µg/mL (≈ 75.3 µM)
- MIC (Aspergillus clavatus [24]): 50 µg/mL (≈ 75.3 µM)
- MIC (Klebsiella pneumoniae [25]): 50 µg/mL (≈ 75.3 µM)
- inhibition zone (IZ) (Bacillus cereus [26]): 26 mm
- inhibition zone (IZ) (Aspergillus fumigatus [27]): 19 mm

SMILES: CC1CC(C)CN(c2nc(-c3ccc(NCC(=O)Nc4nc5ccc(I)cc5s4)cc3)nc(N3CC(C)CC(C)C3)n2)C1 (stereo not drawn)
- inhibition zone (IZ) (Salmonella typhi [1]): 17 mm
- growth inhibition (GI) [2]: 96%
- MIC [3]: > 6.25 µg/mL
- inhibition zone (IZ) (Proteus vulgaris [4]): 26 mm
- inhibition zone (IZ) (Aspergillus clavatus [5]): 11 mm
- inhibition zone (IZ) (Shigella flexneri [6]): 23 mm
- MIC (Bacillus cereus [7]): 25 µg/mL (≈ 35.2 µM)
- MIC (Escherichia coli [8]): 50 µg/mL (≈ 70.4 µM)
- MIC (Aspergillus fumigatus [9]): > 50 µg/mL
- inhibition zone (IZ) (Aspergillus niger [10]): <10 mm
- MIC (Salmonella typhi [11]): 50 µg/mL (≈ 70.4 µM)
- MIC (Pseudomonas aeruginosa [12]): 50 µg/mL (≈ 70.4 µM)
- MIC (Aspergillus niger [13]): 50 µg/mL (≈ 70.4 µM)
- inhibition zone (IZ) (Staphylococcus aureus [14]): 21 mm
- MIC [15]: 200 µg/mL (≈ 281 µM)
- inhibition zone (IZ) (Klebsiella pneumoniae [16]): 12 mm
- inhibition zone (IZ) (Escherichia coli [17]): 18 mm
- MIC (Proteus vulgaris [18]): 12.5 µg/mL (≈ 17.6 µM)
- MIC (Shigella flexneri [19]): 25 µg/mL (≈ 35.2 µM)
- MIC (Staphylococcus aureus [20]): 12.5 µg/mL (≈ 17.6 µM)
- inhibition zone (IZ) (Candida albicans [21]): 20 mm
- inhibition zone (IZ) (Pseudomonas aeruginosa [22]): 16 mm
- MIC (Candida albicans [23]): 50 µg/mL (≈ 70.4 µM)
- MIC (Aspergillus clavatus [24]): 50 µg/mL (≈ 70.4 µM)
- MIC (Klebsiella pneumoniae [25]): 50 µg/mL (≈ 70.4 µM)
- inhibition zone (IZ) (Bacillus cereus [26]): 24 mm
- inhibition zone (IZ) (Aspergillus fumigatus [27]): <10 mm
